Patent US7005517B2, “Paramagnetic metal-phthalocyanine complex compounds and contrast agent using the same” (priority 2001, dated 2006)

How the values were obtained:
[1] = washed out via urination; cited from earlier work
[2] = T1 & T2 measurements of contrast agents (proton relaxation times by NMR); format: physicochemical; settings: for T1 / T2: 0.005M in 0.08% physiological saline, 10% heavy water
Experimental: To these samples, 10% of heavy water was added to obtain a lock signal. As for the blank, 0.08% physiological saline solution was prepared. […] The respective RD values were set sufficiently high in order to eliminate their affects to the test results. […] The respective values of vd and vc as used were those values which were sufficient for parameter-fitting.

[3] = Wash-out time / retention time in blood and tissues; settings: in vivo
Experimental: The retention time (in blood) of the complex compound of said structural formula (I) according to the present invention is within the clinically effective range. Whereas DTPA-Gd, which is a conventional contrast agent, has a wash-out time of approximately 30 minutes, the compound of said structural formula (I) of the present invention has a wash-out time (from the tissues) of approximately 1 hour and 30 minutes. […] Today, in using MR angiography, which has undergone significant advancement, a pulse sequence is required. However, the contrast agent of the present invention can contrast vessels without such pulse sequence while it is also useful as a diagnostic contrast agent for intravenous administration.

[4] = Light absorption test under X-ray irradiation; format: physicochemical; settings: 2.45 mole concentration, X-ray irradiated, compared to Iron and Super-Iron
Description: The compound of the present invention, GdPC-Fuxl-6, as obtained in Example 1, and the conventional X-ray contrast agents (Iron and Super-Iron) were spread onto the sticks respectively at 2.45 mole concentration, and X-ray was irradiated thereto for comparatively measuring the degree of light absorption.

[5] = Stability test for contrast agents in physiological saline (UV-spectrum, separation of metal ions); format: physicochemical; settings: 0.01M in 0.08% physiological saline, 50° C., 24 hours
[6] = Comparative contrast imaging (spin-echo MRI) in mouse after abdominal administration of contrast agents; format: in vivo; settings: 0.01M at 0.2 ml/10 g, scanned 40 minutes after administration, Set 1 and Set 2
Experimental: As for the samples for obtaining magnetic resonance imaging, the appropriate amounts of Gd-DTPA (a commercial contrast agent, Magnevist manufactured by Schering, Inc.), octa(1,4,7,10-tetraoxaundecyl)Gd-phthalocyanine (hereinafter referred to as GdPC-Fuxl-6) and octa(1,4,7,10-tetraoxaundecyl)Mn-phthalocyanine (hereinafter referred to as MnPC-Fuxl-18) were dissolved in 0.08% saline solution respectively, and the respective samples at concentration of 0.01M were used. This was in reference to the administration of commercial Gd-DTPA in human at 0.5M concentration under the condition of 0.4 ml/kg in 0.2 ml.
The above contrast agents of 0.01M concentration were administrated to mouse at 0.2 ml/10 g (female ICR, 27˜30 g, n=6). In the experiment, […], which is the maximum value in the acceptable range of the dose of the contrast agent, were injected to more clearly ascertain their effects. As for the blank for comparison purposes, the solution of 0.08% NaCl was administered. After the abdominal administration of the contrast agents, followed by a thirty-minute wait, the anesthetics (solution of a mixture of rompum, ketamin, and distilled water at 1.5:1.5:7) were injected thereto in order to sufficiently penetrate the contrast agents into the abdominal organs (the images of which were to be examined). […]

Row | Compound | half-life period [1] | T1 ([2]; 80 MHz NMR) | T2 ([2]; 80 MHz NMR) | T1 ([2]; 300 MHz NMR) | T2 ([2]; 300 MHz NMR) | wash-out time [3] | degree of light absorption [4] | stability (no separation of Gd and Mn ions) [5] | T1 (degree of relaxation) ([2]; 80 MHz NMR) | T2 (degree of relaxation) ([2]; 80 MHz NMR) | contrast effects in T1 intensified images [6]
1 | O=C([O-])CN(CCN(CC(=O)[O-])CC(=O)[O-])CCN(CC(=O)[O-])CC(=O)[O-].[Gd+3] [Gd-DTPA, complex of diethylenetriaminepentaactic acid (DTPA) and gadolinium (III), reference compound] | about 14 minutes | 0.0484 s | 0.0441 s | 0.0370 s | 0.261 s | approximately 30 minutes | – | – | – | – | –
2 | octa(1,4,7,10-tetraoxaundecyl)Gd-phthalocyanine [GdPC-Fuxl-6] | – | 0.0243 s | 0.0174 s | 0.0488 s | 0.0234 s | – | superior characteristics with respect to light absorption | stabilized for 24 hours | 24.3 ms | 17.4 ms | good contrast effects
3 | octa(1,4,7,10-tetraoxaundecyl)Mn-phthalocyanine [MnPC-Fuxl-18] | – | 0.191 s | 0.0335 s | 0.317 s | 0.0207 s | – | – | stabilized for 24 hours | 191 ms | 33.5 ms | good contrast effects
